We go through 4 compounds from PubChem BioAssay AID1919000 (Molecular Pharmacology Branch, DTP, NCI, 2023).

The assay relates to 653999-131-R-J2-PDC complex spheroids, growth % test/control. Briefly: Anticancer human tumor 653999-131-R-J2-PDC patient-derived lung adenocarcinoma cell line growth inhibition [AhR]. To be noted: for viability, T/C: stronger effect = lower value. The source says:
Multicellular complex tumor spheroid response to aryl hydrocarbon receptor antagonists in combination with a variety of drugs and investigational agents in selected tumor cell lines
The current study was undertaken to assess response to aryl hydrocarbon receptor antagonists in combination with standard-of-care drugs and investigational agents in solid tumor complex spheroid models. Complex spheroids include a stromal component modeled by human endothelial cells (HUVEC) and fibroblasts modeled by human mesenchymal stem cells (MSCs). The concentration ranges selected for each drug and investigational agent were based upon clinically achievable concentrations if the clinical Cmax of the agent was known.
Compounds. The drugs and investigational agents: BAY 2416964 (NSC825713), GNF351 (NSC835774), CH-223191 (NSC835775), CPI-455 (NSC825282), aza-TdCyd (NSC777586), decitabine (NSC127716), belinostat (NSC758774), entinostat (NSC756642), pevonedistat (NSC761192), tazemetostat (NSC777109), talazoparib (NSC765396), olaparib (NSC753686), selinexor (NSC780203), nedisertib (M3814, NSC802822), bortezomib (NSC756655), venetoclax (NSC766270), doxorubicin (NSC123127), elimusertib (BAY189344, NSC800525), ceralasertib (AZD6738, NSC777638), TAK-243 (NSC785004), alisertib (NSC759677), etoposide (NSC141540), topotecan (NSC609699), eribulin (NSC707389), gemcitabine (NSC613327), carboplatin (NSC241240), cisplatin (NSC119875), and SN-38 (NSC673596) were obtained from the National Cancer Institute (NCI) Developmental Therapeutics Program Chemical Repository (32). The FDA-approved anticancer drug set is available from the Developmental Therapeutics Program at https://dtp.cancer.gov/organization/dscb/obtaining/available plates.htm. […] The stock solutions were prepared in dimethyl sulfoxide (DMSO, Sigma-Aldrich, St. Louis, MO, cat. D2650), except for the platinum compounds which were prepared in saline (Quality Biological, Gaithersburg, MD, cat. 114-055-101), at 800-fold the tested concentration and stored at -70 degrees C prior to their use. All drugs and investigational agents were tested over a range starting from a high concentration at or near the clinical Cmax and decreasing in half-log increments. If the clinical Cmax for an agent had not been determined, the highest concentration tested was 10 microM (Table 1).
Cell Culture. All cells were maintained in an incubator at 37 degrees C and 5% CO2 with 95% humidity. The PDC lines were cultured according to standard operating procedures established by the NCI PDMR (https://pdmr.cancer.gov). Briefly, all PDCs were thawed and cultured in Matrigel-coated flasks prepared with a working solution of 1X Ham's F-12 nutrient mix, without supplementation (Invitrogen, Waltham, MA, cat. 11765054), 100 U/mL penicillin-streptomycin (Invitrogen, cat. 15140122), and 2.5% Matrigel (Corning Inc., Corning, NY, cat. 354248) for the first three passages. All PDCs were cultured in complete DMEM/F-12 media containing advanced DMEM/F-12 (Invitrogen, cat. 12634028), 4.9% defined fetal bovine serum, heat inactivated (HyClone Laboratories Inc., Logan, UT, cat. SH30070.03HI), 389 ng/mL hydrocortisone (Sigma-Aldrich, cat. H4001), 9.7 ng/mL human EGF recombinant protein (Invitrogen, cat. PHG0313), 23.4 microg/mL adenine (Sigma-Aldrich, cat. A2786), 97.3 U/mL penicillin-streptomycin (Invitrogen, cat. 15140122), 1.9 mM L-glutamine (Invitrogen, cat. 25030081), and 9.7 microM Y-27632 dihydrochloride (Tocris Bioscience, Bristol, United Kingdom, cat. 1254). The PDCs were cultured in complete DMEM/F12 media without 10 microM Y-27632 dihydrochloride for at least two passages prior to the screen. The established cell lines NCI-H1341 and […] were cultured in DMEM/F-12, HEPES (Invitrogen, cat. 11330032), 5% defined fetal bovine serum (HyClone Laboratories Inc., cat. SH30070.03), ITS premix universal culture supplement [insulin (5 microg/mL), transferrin (5 microg/mL), and selenious acid (5 ng/mL)] […]

The mark [1] stands for this setting: curve of first compound, second compound 0.1 µM.
Where [2] appears, read: curve of first compound, second compound 0.316 µM.
Setting [3] is: curve of first compound, second compound 1 µM.
Setting [4] is: curve of first compound, second compound 3.16 µM.
Setting [5] is: curve of first compound, second compound 10 µM.

pIC50: −log10 of the molar value. Where “and” joins values, the source holds several entries; their conditions need not be identical. Identical values can stand only once.
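Also: spheroids exposed to agents for seven days.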

What is called pIC50 is the negative decadic logarithm of the IC50, by convention in mol/L. The viability, T/C is the ratio of treated to control. For `Nc1ncn(C2CC(O)C(CO)S2)c(=O)n1` (centres undefined) + Cc1ccccc1N=Nc1ccc(NC(=O)c2ccnn2C)c(C)c1, the pIC50 was less than 6.52 under setting [1]; less than 6.52 under setting [2]; less than 6.52 under setting [3]; less than 6.52 under setting [4]; less than 6.52 under setting [5]. Further, the viability, T/C (second compound 0.1 µM, first compound 0.000949 µM) was 96.4%; the viability, T/C (second compound 0.1 µM, first compound 0.003 µM) was 98.8%; the viability, T/C (second compound 0.1 µM, first compound 0.00949 µM) is 98.2%; the viability, T/C (second compound 0.1 µM, first compound 0.03 µM) is 101%; the viability, T/C (second compound 0.1 µM, first compound 0.0949 µM) is 95.3%; the viability, T/C (second compound 0.1 µM, first compound 0.3 µM) is 85.8%. Moreover, the viability, T/C is 98.6% (second compound 0.316 µM, first compound 0.000949 µM); 105% (second compound 0.316 µM, first compound 0.003 µM); 105% (second compound 0.316 µM, first compound 0.00949 µM); 105% (second compound 0.316 µM, first compound 0.03 µM); 92.8% (second compound 0.316 µM, first compound 0.0949 µM); 95.4% (second compound 0.316 µM, first compound 0.3 µM). The viability, T/C runs as follows: (second compound 1 µM, first compound 0.000949 µM) 107%; (second compound 1 µM, first compound 0.003 µM) 102%; (second compound 1 µM, first compound 0.00949 µM) 109%; (second compound 1 µM, first compound 0.03 µM) 109%; (second compound 1 µM, first compound 0.0949 µM) 88.2%; (second compound 1 µM, first compound 0.3 µM) 88.7%. In addition, the viability, T/C reads like this: (second compound 3.16 µM, first compound 0.000949 µM) 102%; (second compound 3.16 µM, first compound 0.003 µM) 100%; (second compound 3.16 µM, first compound 0.00949 µM) 95.1%; (second compound 3.16 µM, first compound 0.03 µM) 94.4%; (second compound 3.16 µM, first compound 0.0949 µM) 95.8%; (second compound 3.16 µM, first compound 0.3 µM) 82%. Further, the viability, T/C (second compound 10 µM, first compound 0.000949 µM) was 101%; the viability, T/C (second compound 10 µM, first compound 0.003 µM) is 103%; the viability, T/C (second compound 10 µM, first compound 0.00949 µM) was 110%; the viability, T/C (second compound 10 µM, first compound 0.03 µM) is 95.6%; the viability, T/C (second compound 10 µM, first compound 0.0949 µM) was 107%; the viability, T/C (second compound 10 µM, first compound 0.3 µM) was 103%.

Regarding `CC1COCCN1c1cc(-c2ccnn2C)c2ccnc(-c3ccn[nH]3)c2n1` (centres undefined) + Cc1ccccc1N=Nc1ccc(NC(=O)c2ccnn2C)c(C)c1, the pIC50 is, setting by setting: under setting [1], 6.77; under setting [2], 6.80; under setting [3], 6.71; under setting [4], 6.86; under setting [5], 6.63. Further, the viability, T/C (second compound 0.1 µM, first compound 0.00316 µM) was 98.7%; the viability, T/C (second compound 0.1 µM, first compound 0.01 µM) is 101%; the viability, T/C (second compound 0.1 µM, first compound 0.0316 µM) was 82%; the viability, T/C (second compound 0.1 µM, first compound 0.1 µM) is 59.7%; the viability, T/C (second compound 0.1 µM, first compound 0.316 µM) was 38.7%; the viability, T/C (second compound 0.1 µM, first compound 1 µM) was 34.5%. In addition, the viability, T/C was 103% (second compound 0.316 µM, first compound 0.00316 µM); 103% (second compound 0.316 µM, first compound 0.01 µM); 78.4% (second compound 0.316 µM, first compound 0.0316 µM); 60.3% (second compound 0.316 µM, first compound 0.1 µM); 36.6% (second compound 0.316 µM, first compound 0.316 µM); 31.8% (second compound 0.316 µM, first compound 1 µM). The viability, T/C (second compound 1 µM, first compound 0.00316 µM) was 102%; the viability, T/C (second compound 1 µM, first compound 0.01 µM) is 100%; the viability, T/C (second compound 1 µM, first compound 0.0316 µM) is 76.9%; the viability, T/C (second compound 1 µM, first compound 0.1 µM) was 65.1%; the viability, T/C (second compound 1 µM, first compound 0.316 µM) was 37.9%; the viability, T/C (second compound 1 µM, first compound 1 µM) is 36.3%. The viability, T/C is, setting by setting: (second compound 3.16 µM, first compound 0.00316 µM) 103%; (second compound 3.16 µM, first compound 0.01 µM) 107%; (second compound 3.16 µM, first compound 0.0316 µM) 84.5%; (second compound 3.16 µM, first compound 0.1 µM) 54.9%; (second compound 3.16 µM, first compound 0.316 µM) 39.8%; (second compound 3.16 µM, first compound 1 µM) 35.1%. Further, the viability, T/C (second compound 10 µM, first compound 0.00316 µM) was 89.7%; the viability, T/C (second compound 10 µM, first compound 0.01 µM) was 89.3%; the viability, T/C (second compound 10 µM, first compound 0.0316 µM) was 76.3%; the viability, T/C (second compound 10 µM, first compound 0.1 µM) is 57.6%; the viability, T/C (second compound 10 µM, first compound 0.316 µM) was 49.8%; the viability, T/C (second compound 10 µM, first compound 1 µM) is 39.1%.

As for `Nc1ccccc1NC(=O)c1ccc(CNC(=O)OCc2cccnc2)cc1`, the viability, T/C (compound 0.0316 µM) is 98% and 89.6% and 98.3%; the viability, T/C (compound 0.1 µM) was 102% and 87.1% and 81%; the viability, T/C (compound 0.316 µM) is 83% and 80.2% and 77.3%; the viability, T/C (compound 1 µM) is 81% and 70.5% and 65.6%; the viability, T/C (compound 3.16 µM) was 57.5% and 63.4% and 69.3%; the viability, T/C (compound 10 µM) was 16% and 12.8% and 13.9%. The pIC50 (curve of compound) was 5.42 and 5.41 and 5.40.

For the compound `CC1COCCN1c1cc(-c2ccnn2C)c2ccnc(-c3ccn[nH]3)c2n1` (centres undefined), the viability, T/C reads like this: (compound 0.00316 µM) 97.3% and 102% and 106%; (compound 0.01 µM) 92.7% and 98.5% and 104%; (compound 0.0316 µM) 77.3% and 77.9% and 90.3%; (compound 0.1 µM) 58.7% and 58.6% and 62.5%; (compound 0.316 µM) 32.9% and 34% and 41.3%; (compound 1 µM) 24% and 30.5% and 29.1%. Further, the pIC50 (curve of compound) was 6.85 and 6.71.
